Test [1] has as its target Mitogen-activated protein kinase kinase kinase kinase 4 (Homo sapiens, UniProt O95819). Nature of the test: Selectivity interaction (ProQinase) EUB0000171b MAP4K4.
Test [2] has as its system Epidermal growth factor receptor (Homo sapiens), P00533 [UNDEFINED MUTATION]. The following applies: at 10 µM.
Test [3] concerns the target Protein kinase C theta type (Homo sapiens, UniProt Q04759). Nature of the test: Selectivity interaction (Ambit KINOMEscan and KiNATiv profiling in Jurkat cells) EUB0000090b PRKCQ. The following applies: at 1 µM. Format: cell-based.
For test [4], the target named is T1, cGMP-dependent protein kinase 2 (Homo sapiens) (UniProt Q13237).
T1 sequence (whole entry): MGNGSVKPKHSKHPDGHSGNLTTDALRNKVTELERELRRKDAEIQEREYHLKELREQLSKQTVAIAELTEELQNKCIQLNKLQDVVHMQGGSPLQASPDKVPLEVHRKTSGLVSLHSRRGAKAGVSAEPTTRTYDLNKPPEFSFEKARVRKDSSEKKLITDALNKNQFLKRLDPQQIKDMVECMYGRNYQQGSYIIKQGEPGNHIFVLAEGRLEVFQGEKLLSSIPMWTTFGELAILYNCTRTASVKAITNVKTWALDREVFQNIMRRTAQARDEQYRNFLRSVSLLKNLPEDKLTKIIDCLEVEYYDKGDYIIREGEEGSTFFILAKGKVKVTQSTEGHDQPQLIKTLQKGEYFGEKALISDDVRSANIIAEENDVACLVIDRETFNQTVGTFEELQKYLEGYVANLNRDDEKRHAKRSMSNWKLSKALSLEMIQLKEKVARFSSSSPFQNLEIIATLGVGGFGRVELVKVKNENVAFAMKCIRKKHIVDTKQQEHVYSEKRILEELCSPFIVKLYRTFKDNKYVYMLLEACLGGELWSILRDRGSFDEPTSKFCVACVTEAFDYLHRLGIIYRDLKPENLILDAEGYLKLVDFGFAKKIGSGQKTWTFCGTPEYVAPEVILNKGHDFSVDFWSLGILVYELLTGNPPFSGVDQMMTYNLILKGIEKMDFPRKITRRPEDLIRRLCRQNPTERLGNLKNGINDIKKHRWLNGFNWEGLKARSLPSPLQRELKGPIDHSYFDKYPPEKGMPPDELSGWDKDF
To be noted: at 10 µM.

For test [5], the system named is Mast/stem cell growth factor receptor Kit (Homo sapiens), P10721 [D816V]. Nature of the test: (§1) Selectivity interaction (KinomeScan (DiscoverX)) EUB0000695a KIT. To be noted: at 100 nM.
The subject of test [6] is Mast/stem cell growth factor receptor Kit (Homo sapiens), P10721 [L576P]. The test is described as §1. The following applies: at 100 nM.
Test [7] relates to Mast/stem cell growth factor receptor Kit (Homo sapiens), P10721 [A829P]. Described as §1. The following applies: at 100 nM.
Chain of Mast/stem cell growth factor receptor Kit (Homo sapiens), P10721 [A829P] (P10721 whole entry A829P): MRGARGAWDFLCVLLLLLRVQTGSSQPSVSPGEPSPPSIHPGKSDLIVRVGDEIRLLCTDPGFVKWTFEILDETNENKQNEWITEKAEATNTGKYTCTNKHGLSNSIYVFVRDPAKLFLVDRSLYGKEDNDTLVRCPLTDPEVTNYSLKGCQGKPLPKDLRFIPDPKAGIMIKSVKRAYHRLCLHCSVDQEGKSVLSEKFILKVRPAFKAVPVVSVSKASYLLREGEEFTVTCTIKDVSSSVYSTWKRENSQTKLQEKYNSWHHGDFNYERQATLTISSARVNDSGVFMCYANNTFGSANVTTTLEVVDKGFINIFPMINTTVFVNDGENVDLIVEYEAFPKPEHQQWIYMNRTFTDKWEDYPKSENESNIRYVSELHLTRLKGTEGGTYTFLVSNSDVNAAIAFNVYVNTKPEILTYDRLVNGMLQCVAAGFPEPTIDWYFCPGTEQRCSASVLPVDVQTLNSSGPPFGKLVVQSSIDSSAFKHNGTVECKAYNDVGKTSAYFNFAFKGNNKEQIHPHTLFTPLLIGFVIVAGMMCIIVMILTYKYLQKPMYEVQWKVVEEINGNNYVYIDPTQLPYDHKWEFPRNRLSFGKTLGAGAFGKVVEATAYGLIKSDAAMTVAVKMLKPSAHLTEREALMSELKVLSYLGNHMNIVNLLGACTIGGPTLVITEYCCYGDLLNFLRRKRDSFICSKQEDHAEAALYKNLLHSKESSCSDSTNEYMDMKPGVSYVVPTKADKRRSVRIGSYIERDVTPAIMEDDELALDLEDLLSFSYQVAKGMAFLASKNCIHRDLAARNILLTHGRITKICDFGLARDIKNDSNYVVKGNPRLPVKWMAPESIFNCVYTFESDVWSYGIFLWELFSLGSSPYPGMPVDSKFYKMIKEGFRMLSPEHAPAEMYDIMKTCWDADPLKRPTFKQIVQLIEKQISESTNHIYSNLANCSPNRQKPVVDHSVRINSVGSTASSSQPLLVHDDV
Test [8] has as its system Mast/stem cell growth factor receptor Kit (Homo sapiens), P10721 [V559D,T670I]. The test is described as §1. To be noted: at 100 nM.
The test system of test [9] is Mast/stem cell growth factor receptor Kit (Homo sapiens), P10721 [D816H]. Described as §1. The following applies: at 100 nM.
Chain of Mast/stem cell growth factor receptor Kit (Homo sapiens), P10721 [D816H] (P10721 whole entry D816H): as the sequence (P10721 whole entry A829P) above, with D816H, P829A counted along it
In test [10] the test system is Mast/stem cell growth factor receptor Kit (Homo sapiens), P10721 [V559D,V654A]. The test is described as §1. The following applies: at 100 nM.
Test [11] has as its target Mast/stem cell growth factor receptor Kit (Homo sapiens, UniProt P10721). The description is as §1. The following applies: at 100 nM.
In test [12] the test system is Mast/stem cell growth factor receptor Kit (Homo sapiens), P10721 [V559D]. The description is as §1. To be noted: at 100 nM.
Test [13] deals with T2, Tyrosine-protein kinase receptor TYRO3 (Homo sapiens) (UniProt Q06418).
T2 sequence (whole entry): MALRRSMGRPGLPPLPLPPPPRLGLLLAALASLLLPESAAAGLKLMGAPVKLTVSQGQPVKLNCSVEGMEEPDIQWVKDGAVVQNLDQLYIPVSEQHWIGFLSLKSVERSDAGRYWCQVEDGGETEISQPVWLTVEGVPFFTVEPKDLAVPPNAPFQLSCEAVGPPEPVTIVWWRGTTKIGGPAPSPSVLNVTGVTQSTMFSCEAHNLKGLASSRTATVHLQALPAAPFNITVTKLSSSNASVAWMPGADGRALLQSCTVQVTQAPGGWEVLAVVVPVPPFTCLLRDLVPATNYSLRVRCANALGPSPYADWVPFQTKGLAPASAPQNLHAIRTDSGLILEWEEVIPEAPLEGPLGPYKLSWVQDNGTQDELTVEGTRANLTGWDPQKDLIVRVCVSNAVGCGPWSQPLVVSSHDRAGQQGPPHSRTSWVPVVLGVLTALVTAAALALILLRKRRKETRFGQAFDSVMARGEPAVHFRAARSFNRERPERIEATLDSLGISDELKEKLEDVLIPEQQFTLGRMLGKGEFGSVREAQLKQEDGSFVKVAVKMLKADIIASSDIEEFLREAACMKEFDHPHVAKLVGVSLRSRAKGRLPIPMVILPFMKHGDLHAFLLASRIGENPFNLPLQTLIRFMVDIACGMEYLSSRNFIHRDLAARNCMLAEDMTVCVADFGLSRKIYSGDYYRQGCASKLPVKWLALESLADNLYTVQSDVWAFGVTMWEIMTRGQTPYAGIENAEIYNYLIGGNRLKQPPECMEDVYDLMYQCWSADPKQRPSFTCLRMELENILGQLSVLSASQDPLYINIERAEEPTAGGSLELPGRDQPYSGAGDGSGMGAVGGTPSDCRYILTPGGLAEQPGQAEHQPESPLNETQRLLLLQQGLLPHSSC
Nature of the test: Selectivity interaction (KinomeScan (DiscoverX)) EUB0000045b TYRO3.

Test [14] deals with Phosphatidylinositol 4-kinase alpha (Homo sapiens, UniProt P42356). Nature of the test: Selectivity interaction (Adapta Assay) EUB0001632a PI4KA. The following applies: at 10 µM.
Chain of Phosphatidylinositol 4-kinase alpha (P42356 whole entry, looked up): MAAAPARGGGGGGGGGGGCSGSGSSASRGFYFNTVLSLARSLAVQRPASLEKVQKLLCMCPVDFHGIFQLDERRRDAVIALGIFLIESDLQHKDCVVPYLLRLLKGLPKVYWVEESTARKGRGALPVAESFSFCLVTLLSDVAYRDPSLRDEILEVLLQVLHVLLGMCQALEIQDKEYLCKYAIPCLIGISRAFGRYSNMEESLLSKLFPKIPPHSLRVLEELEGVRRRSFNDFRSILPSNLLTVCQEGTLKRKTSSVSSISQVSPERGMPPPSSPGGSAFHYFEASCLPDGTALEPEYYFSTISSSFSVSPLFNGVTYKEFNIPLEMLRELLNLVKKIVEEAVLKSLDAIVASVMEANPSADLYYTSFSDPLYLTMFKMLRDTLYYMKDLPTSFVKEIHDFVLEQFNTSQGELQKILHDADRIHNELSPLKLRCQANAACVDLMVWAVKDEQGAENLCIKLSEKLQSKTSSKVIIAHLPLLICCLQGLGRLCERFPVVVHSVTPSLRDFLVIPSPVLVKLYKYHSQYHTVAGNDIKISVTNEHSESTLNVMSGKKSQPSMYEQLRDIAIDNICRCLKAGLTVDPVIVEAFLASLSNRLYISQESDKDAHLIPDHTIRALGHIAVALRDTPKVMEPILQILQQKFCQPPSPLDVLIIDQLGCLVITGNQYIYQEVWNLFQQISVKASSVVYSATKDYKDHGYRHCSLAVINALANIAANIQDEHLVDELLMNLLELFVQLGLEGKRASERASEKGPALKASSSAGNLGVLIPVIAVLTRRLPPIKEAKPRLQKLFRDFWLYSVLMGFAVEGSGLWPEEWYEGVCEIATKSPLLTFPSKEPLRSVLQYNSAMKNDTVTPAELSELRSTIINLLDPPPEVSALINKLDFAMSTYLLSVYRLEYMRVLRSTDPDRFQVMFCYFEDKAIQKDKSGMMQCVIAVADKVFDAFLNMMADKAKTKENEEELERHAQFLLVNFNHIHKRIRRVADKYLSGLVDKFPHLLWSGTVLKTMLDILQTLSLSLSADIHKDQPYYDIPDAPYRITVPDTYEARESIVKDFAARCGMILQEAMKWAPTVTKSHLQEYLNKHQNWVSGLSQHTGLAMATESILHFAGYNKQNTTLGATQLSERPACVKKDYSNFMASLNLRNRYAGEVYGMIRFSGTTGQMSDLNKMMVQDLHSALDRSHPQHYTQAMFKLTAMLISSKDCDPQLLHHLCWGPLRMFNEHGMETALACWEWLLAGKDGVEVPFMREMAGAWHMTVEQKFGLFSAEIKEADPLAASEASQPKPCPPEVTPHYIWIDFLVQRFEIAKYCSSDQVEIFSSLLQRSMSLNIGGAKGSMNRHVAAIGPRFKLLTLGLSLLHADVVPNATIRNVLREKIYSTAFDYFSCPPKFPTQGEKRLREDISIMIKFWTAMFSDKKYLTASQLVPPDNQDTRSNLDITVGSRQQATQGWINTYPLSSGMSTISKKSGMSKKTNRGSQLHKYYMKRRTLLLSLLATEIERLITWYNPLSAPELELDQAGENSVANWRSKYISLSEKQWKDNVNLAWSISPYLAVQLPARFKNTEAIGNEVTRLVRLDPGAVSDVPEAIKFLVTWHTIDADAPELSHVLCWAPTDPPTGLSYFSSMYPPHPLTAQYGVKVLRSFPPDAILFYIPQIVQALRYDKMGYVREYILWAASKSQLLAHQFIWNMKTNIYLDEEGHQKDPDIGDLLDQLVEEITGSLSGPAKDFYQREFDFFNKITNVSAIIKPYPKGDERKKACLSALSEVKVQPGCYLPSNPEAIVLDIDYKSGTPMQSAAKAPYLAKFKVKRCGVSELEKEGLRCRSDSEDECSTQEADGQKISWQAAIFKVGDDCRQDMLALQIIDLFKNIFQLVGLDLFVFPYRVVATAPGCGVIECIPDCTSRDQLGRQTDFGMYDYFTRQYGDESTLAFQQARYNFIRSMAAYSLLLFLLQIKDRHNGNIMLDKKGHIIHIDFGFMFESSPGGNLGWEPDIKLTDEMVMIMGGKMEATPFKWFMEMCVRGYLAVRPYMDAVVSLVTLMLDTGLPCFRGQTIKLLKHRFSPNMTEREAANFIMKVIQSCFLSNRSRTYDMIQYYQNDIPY
The target of test [15] is Tyrosine-protein kinase ABL1 (Homo sapiens, UniProt P00519). Nature of the test: Selectivity interaction (ActivX KiNativ screen (kinase selectivity in THP-1 cell lysates)) EUB0000639a ABL1. Format: subcellular. To be noted: lysate, at 1 µM.
In test [16] the target is Serine/threonine-protein kinase SIK1 (Homo sapiens) (UniProt P57059). Nature of the test: Selectivity interaction (KinomeScan (DiscoverX)) EUB0000595a SIK1. To be noted: at 10 µM.
The target of test [17] is STE20-like serine/threonine-protein kinase (Homo sapiens, UniProt Q9H2G2). Nature of the test: Selectivity interaction (ActivX KiNativ screen (ex vivo kinase selectivity in human PBMCs)) EUB0001619a SLK. To be noted: PBMC, at 1 µM. Format: cell-based.
The target in test [18] is Tyrosine-protein kinase Fes/Fps (Homo sapiens) (UniProt P07332). Nature of the test: Selectivity interaction (KinomeScan (DiscoverX)) EUB0001619a FES. The following applies: at 1 µM.

Chain of Mitogen-activated protein kinase kinase kinase kinase 4 (O95819 2-1239 limits assumed): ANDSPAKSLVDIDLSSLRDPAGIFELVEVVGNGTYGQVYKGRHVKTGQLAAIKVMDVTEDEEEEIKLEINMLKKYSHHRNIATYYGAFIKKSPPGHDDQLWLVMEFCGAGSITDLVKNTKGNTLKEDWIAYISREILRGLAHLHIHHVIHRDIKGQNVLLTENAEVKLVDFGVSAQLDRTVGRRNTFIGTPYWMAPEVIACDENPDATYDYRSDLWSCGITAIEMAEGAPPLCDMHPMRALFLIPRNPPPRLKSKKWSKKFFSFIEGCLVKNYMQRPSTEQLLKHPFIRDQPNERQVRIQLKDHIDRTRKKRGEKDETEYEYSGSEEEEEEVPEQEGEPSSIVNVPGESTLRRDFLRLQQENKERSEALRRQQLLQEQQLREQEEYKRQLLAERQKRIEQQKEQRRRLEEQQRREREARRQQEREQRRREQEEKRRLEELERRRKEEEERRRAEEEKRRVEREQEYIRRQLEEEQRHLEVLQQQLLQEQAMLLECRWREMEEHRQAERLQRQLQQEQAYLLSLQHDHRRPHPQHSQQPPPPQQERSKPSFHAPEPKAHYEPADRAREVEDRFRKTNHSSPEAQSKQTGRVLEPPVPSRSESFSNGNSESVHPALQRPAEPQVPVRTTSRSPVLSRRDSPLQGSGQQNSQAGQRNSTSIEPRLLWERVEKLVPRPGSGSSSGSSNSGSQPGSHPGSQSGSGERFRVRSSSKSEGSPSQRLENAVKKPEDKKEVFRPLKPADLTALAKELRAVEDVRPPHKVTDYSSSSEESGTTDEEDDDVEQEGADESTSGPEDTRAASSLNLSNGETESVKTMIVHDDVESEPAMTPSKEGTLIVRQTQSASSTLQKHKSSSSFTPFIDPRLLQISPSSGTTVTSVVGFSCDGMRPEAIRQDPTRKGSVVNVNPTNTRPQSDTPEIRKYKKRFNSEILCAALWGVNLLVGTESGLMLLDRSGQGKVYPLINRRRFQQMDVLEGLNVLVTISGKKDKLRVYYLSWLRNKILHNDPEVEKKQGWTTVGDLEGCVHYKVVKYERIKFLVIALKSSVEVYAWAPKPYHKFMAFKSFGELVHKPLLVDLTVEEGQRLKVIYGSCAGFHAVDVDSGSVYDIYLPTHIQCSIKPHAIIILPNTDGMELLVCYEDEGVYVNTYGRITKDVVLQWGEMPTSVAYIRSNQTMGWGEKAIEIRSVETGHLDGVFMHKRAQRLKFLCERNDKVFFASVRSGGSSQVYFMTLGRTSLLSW
Chain of Mast/stem cell growth factor receptor Kit (P10721 whole entry): as the sequence (P10721 whole entry A829P) above, with P829A counted along it
Chain of Protein kinase C theta type (Q04759 whole entry, looked up): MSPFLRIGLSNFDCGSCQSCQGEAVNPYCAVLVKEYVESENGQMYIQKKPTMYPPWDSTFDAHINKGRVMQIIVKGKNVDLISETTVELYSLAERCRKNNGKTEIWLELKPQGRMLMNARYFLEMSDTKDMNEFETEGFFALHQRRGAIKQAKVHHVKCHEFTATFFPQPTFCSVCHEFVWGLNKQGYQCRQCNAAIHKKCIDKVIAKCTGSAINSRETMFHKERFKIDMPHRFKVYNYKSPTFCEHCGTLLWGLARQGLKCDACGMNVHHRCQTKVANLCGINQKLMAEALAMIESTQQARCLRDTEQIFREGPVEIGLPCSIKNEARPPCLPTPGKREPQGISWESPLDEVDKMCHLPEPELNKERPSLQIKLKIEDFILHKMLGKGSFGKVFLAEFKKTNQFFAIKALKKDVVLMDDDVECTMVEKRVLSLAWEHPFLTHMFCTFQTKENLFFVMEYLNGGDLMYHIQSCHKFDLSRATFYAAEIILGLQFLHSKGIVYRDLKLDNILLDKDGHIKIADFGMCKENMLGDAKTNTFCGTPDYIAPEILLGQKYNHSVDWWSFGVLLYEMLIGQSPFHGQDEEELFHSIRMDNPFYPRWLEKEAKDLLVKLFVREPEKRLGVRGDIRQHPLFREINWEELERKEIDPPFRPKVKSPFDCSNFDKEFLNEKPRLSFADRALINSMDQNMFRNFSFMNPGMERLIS

On to `C=CC(=O)Nc1cccc(C(=O)Nc2ccc(Nc3cc(-c4[nH]c(SC)nc4C)ccn3)cc2)c1`, for which the % of control in test [1] (at 1 µM) was determined as 79%; in test [1] (at 5 µM) it was 55%.

As to `Cc1cc([C@@H](C)Nc2ccccc2C(=O)O)c2nc(N3CCOCC3)cc(=O)n2c1` [AZD-6482], the % of control in [2] came out at 100%.

In test [3], `CN(C)C/C=C/C(=O)Nc1ccc(C(=O)N2CCCC(Nc3ncc(Cl)c(-c4c[nH]c5ccccc45)n3)C2)cc1` (stereo not given) came in with a % of control of 100%.

The compound `CCN(CC)CCCCNc1ncc2cc(-c3cc(OC)cc(OC)c3)c(NC(=O)NC(C)(C)C)nc2n1` registered a % of control in test [4] of 100%.

Regarding `Cc1cc(F)c(C(=O)Nc2cccc(-c3nncn3C(C)C)n2)cc1-n1cnc(C2CC2)c1`, the % of control turned out to be 84% in [5]; 94% in test [6]; 82% in [7]; 100% in test [8]; 79% in test [9]; 100% in test [10]. For the same compound, the % of control amounted to 89% in test [11] and 92% in test [12].

Regarding `C=CC(=O)Nc1cc(-n2c(=O)ccc3cnc4ccc(-c5ccc(NS(C)(=O)=O)cc5)cc4c32)ccc1C`, the % of control in test [13] (at 1 µM) and in test [13] (at 10 µM) was 100% throughout.

In the case of `Cn1cc(-n2cnc3c(NCc4nc5cc(Cl)c(Cl)cc5[nH]4)nc(N4CCOCC4)nc32)cn1`, the % of inhibition in [14] is -3.32%.

Turning to `CC[C@@H]1[C@H](F)C(=O)N[C@@H]1COc1nccc2cc(C(N)=O)c(OC)cc12` [ZIMLOVISERTIB], in test [15], the % of inhibition was -13.2%.

Take `COCC(=O)NC/C=C/c1ccc2ncnc(Nc3ccc(Oc4ccc(C)nc4)c(C)c3)c2c1` [CP-724714]: in [16], the % of control stood at 100%.

Take `N#Cc1cccc(-c2c[nH]c3ncnc(N4CCOCC4)c23)c1`: the % of inhibition in test [17] came out at 61%. Further, the % of control in test [18] came to 100%.

Values taken from ChEMBL document CHEMBL5465560, “Selectivity Literature for EUbOPEN Chemogenomic Library” (2024).
